Broadly, the MIC is the least concentration at which growth counts as inhibited.

≈ marks a conversion by molar mass, not a printed value.

What all share (assay type): functional
One assay has as its system Candida albicans. The assay is described as follows: Antifungal activity against Candida albicans ATCC3147 assessed as reduction in fungal growth measured after 24 hrs by CLSI protocol based method.
The test system of the next assay is Nakaseomyces glabratus. The experiment in a line: Antifungal activity against Candida glabrata ATCC2001 assessed as reduction in fungal growth measured after 24 hrs by CLSI protocol based method.
The next assay relates to [Candida] auris. The assay is described as follows: Antifungal activity against Candida auris MYA-500 assessed as reduction in fungal growth measured after 24 hrs by CLSI protocol based method. Particulars: Candidozyma auris.

Take `CCCCCCCCCCC[C@@H](O[C@H]1OC[C@@H](O)[C@H](O)[C@H]1O)[C@H](O)[C@H](O)C[C@@H]1CC(=O)N[C@@H](CO)C(=O)N[C@H]([C@H](O)c2ccc(O)cc2)C(=O)N[C@H](CCN)C(=O)NCC(=O)N[C@@H](CC(=O)NCCC)C(=O)N[C@H](CO)C(=O)N[C@@H](CC(N)=O)C(=O)N1`: the MIC in the assay on Candida albicans turned out to be 0.5 µg/mL (≈ 0.402 µM); in the assay on Nakaseomyces glabratus, 0.5 µg/mL (≈ 0.402 µM); in assay [Candida] auris it was 1 µg/mL (≈ 0.805 µM).

As for `CCCCCCCCCCC[C@@H](O[C@H]1OC[C@@H](O)[C@H](O)[C@H]1O)[C@H](O)[C@H](O)C[C@@H]1CC(=O)N[C@@H](CO)C(=O)N[C@H]([C@H](O)c2ccc(O)cc2)C(=O)N[C@H](CCN)C(=O)NCC(=O)N[C@@H](CC(=O)N(C)C)C(=O)N[C@H](CO)C(=O)N[C@@H](CC(N)=O)C(=O)N1`, the MIC turned out to be 1 µg/mL (≈ 0.814 µM) with Candida albicans, 0.5 µg/mL (≈ 0.407 µM) in the assay on Nakaseomyces glabratus and 0.5 µg/mL (≈ 0.407 µM) in assay [Candida] auris.

On to `C#CCCNC(=O)C[C@@H]1NC(=O)CNC(=O)[C@@H](CCN)NC(=O)[C@@H]([C@H](O)c2ccc(O)cc2)NC(=O)[C@H](CO)NC(=O)C[C@@H](C[C@@H](O)[C@@H](O)[C@@H](CCCCCCCCCCC)O[C@H]2OC[C@@H](O)[C@H](O)[C@H]2O)NC(=O)[C@H](CC(N)=O)NC(=O)[C@@H](CO)NC1=O`, for which the MIC with Candida albicans and with Nakaseomyces glabratus was 0.5 µg/mL (≈ 0.399 µM) each time.

With `CCCCCCCCCCC[C@@H](O[C@H]1OC[C@@H](O)[C@H](O)[C@H]1O)[C@H](O)[C@H](O)C[C@@H]1CC(=O)N[C@@H](CO)C(=O)N[C@H]([C@H](O)c2ccc(O)cc2)C(=O)N[C@H](CCN)C(=O)NCC(=O)N[C@@H](CC(=O)NCCC)C(=O)N[C@H](CO)C(=O)N[C@@H]([C@H](O)C(N)=O)C(=O)N1`, the MIC stood at 0.5 µg/mL (≈ 0.397 µM) with Candida albicans, 0.5 µg/mL (≈ 0.397 µM) with Nakaseomyces glabratus and 1 µg/mL (≈ 0.795 µM) in assay [Candida] auris.

Turning to `C#CCCNC(=O)C[C@@H]1NC(=O)CNC(=O)[C@@H](CCN)NC(=O)[C@@H]([C@H](O)c2ccc(O)cc2)NC(=O)[C@H](CO)NC(=O)C[C@@H](C[C@@H](O)[C@@H](O)[C@@H](CCCCCCCCCCC)O[C@H]2OC[C@@H](O)[C@H](O)[C@H]2O)NC(=O)[C@H]([C@H](O)C(N)=O)NC(=O)[C@@H](CO)NC1=O`, the MIC in the assay on Candida albicans and with Nakaseomyces glabratus was 0.5 µg/mL (≈ 0.394 µM) in each case.

For the compound `CCCCCCCCCCC[C@@H](O[C@H]1OC[C@@H](O)[C@H](O)[C@H]1O)[C@H](O)[C@H](O)C[C@@H]1CC(=O)N[C@@H](CO)C(=O)N[C@H]([C@H](O)c2ccc(O)cc2)C(=O)N[C@H](CCN)C(=O)NCC(=O)N[C@@H](CC(=O)O)C(=O)N[C@H](CO)C(=O)N[C@@H]([C@H](O)C(N)=O)C(=O)N1`, the MIC was determined as 2 µg/mL (≈ 1.64 µM) in the assay on Candida albicans, 2 µg/mL (≈ 1.64 µM) in the assay on Nakaseomyces glabratus and 1 µg/mL (≈ 0.821 µM) in assay [Candida] auris.

With `CCCCCCCCCCCCNC(=O)C[C@@H]1NC(=O)CNC(=O)[C@@H](CCN)NC(=O)[C@@H]([C@H](O)c2ccc(O)cc2)NC(=O)[C@H](CO)NC(=O)C[C@@H](C[C@@H](O)[C@@H](O)[C@@H](CCCCCCCCCCC)O[C@H]2OC[C@@H](O)[C@H](O)[C@H]2O)NC(=O)[C@H](CC(N)=O)NC(=O)[C@@H](CO)NC1=O`, the MIC in the assay with Candida albicans is > 8 µg/mL; in the assay on Nakaseomyces glabratus, 8 µg/mL (≈ 5.85 µM).

Consider `CCCCCCCCCCC[C@@H](O[C@H]1OC[C@@H](O)[C@H](O)[C@H]1O)[C@H](O)[C@H](O)C[C@@H]1CC(=O)N[C@@H](CO)C(=O)N[C@H]([C@H](O)c2ccc(O)cc2)C(=O)N[C@H](CCN)C(=O)NCC(=O)N[C@@H](CC(=O)O)C(=O)N[C@H](CO)C(=O)N[C@@H](CC(N)=O)C(=O)N1`, for which the MIC came out at 2 µg/mL (≈ 1.66 µM) in the assay with Candida albicans, 2 µg/mL (≈ 1.66 µM) with Nakaseomyces glabratus and 1 µg/mL (≈ 0.832 µM) in assay [Candida] auris.

Consider `CCCCCCCCCCC[C@@H](O[C@H]1OC[C@@H](O)[C@H](O)[C@H]1O)[C@H](O)[C@H](O)C[C@@H]1CC(=O)N[C@@H](CO)C(=O)N[C@H]([C@H](O)c2ccc(O)cc2)C(=O)N[C@H](CCN)C(=O)NCC(=O)N[C@@H](CC(N)=O)C(=O)N[C@H](CO)C(=O)N[C@@H](CC(N)=O)C(=O)N1`, for which the MIC was 0.125 µg/mL (≈ 0.104 µM) in the assay with Candida albicans, 0.25 µg/mL (≈ 0.208 µM) in the assay on Nakaseomyces glabratus and 0.25 µg/mL (≈ 0.208 µM) in assay [Candida] auris.

Consider `CCCCCCCCCCC[C@@H](O[C@H]1OC[C@@H](O)[C@H](O)[C@H]1O)[C@H](O)[C@H](O)C[C@@H]1CC(=O)N[C@@H](CO)C(=O)N[C@H]([C@H](O)c2ccc(O)cc2)C(=O)N[C@H](CCN)C(=O)NCC(=O)N[C@@H](CC(=O)NC)C(=O)N[C@H](CO)C(=O)N[C@@H]([C@H](O)C(N)=O)C(=O)N1`, for which the MIC (in the assay with Candida albicans; with Nakaseomyces glabratus; in assay [Candida] auris) was 0.5 µg/mL (≈ 0.406 µM) each time.

Consider `CCCCCCCCCCC[C@@H](O[C@H]1OC[C@@H](O)[C@H](O)[C@H]1O)[C@H](O)[C@H](O)C[C@@H]1CC(=O)N[C@@H](CO)C(=O)N[C@H]([C@H](O)c2ccc(O)cc2)C(=O)N[C@H](CCN)C(=O)NCC(=O)N[C@@H](CC(=O)NC)C(=O)N[C@H](CO)C(=O)N[C@@H](CC(N)=O)C(=O)N1`, for which the MIC (with Candida albicans; in the assay with Nakaseomyces glabratus; in assay [Candida] auris) was 0.5 µg/mL (≈ 0.412 µM) each time.

For the compound `CCCCCCCCCCC[C@@H](O[C@H]1OC[C@@H](O)[C@H](O)[C@H]1O)[C@H](O)[C@H](O)C[C@@H]1CC(=O)N[C@@H](CO)C(=O)N[C@H]([C@H](O)c2ccc(O)cc2)C(=O)N[C@H](CCN)C(=O)NCC(=O)N[C@@H](CC(=O)N(C)C)C(=O)N[C@H](CO)C(=O)N[C@@H]([C@H](O)C(N)=O)C(=O)N1`, the MIC in the assay with Candida albicans amounted to 1 µg/mL (≈ 0.804 µM); in the assay with Nakaseomyces glabratus, 0.5 µg/mL (≈ 0.402 µM); in assay [Candida] auris, 0.5 µg/mL (≈ 0.402 µM).

Regarding `CCCCCCCCCCC[C@@H](O[C@H]1OC[C@@H](O)[C@H](O)[C@H]1O)[C@H](O)[C@H](O)C[C@@H]1CC(=O)N[C@@H](CO)C(=O)N[C@H]([C@H](O)c2ccc(O)cc2)C(=O)N[C@H](CCN)C(=O)NCC(=O)N[C@@H](CC(N)=O)C(=O)N[C@H](CO)C(=O)N[C@@H]([C@H](O)C(N)=O)C(=O)N1`, the MIC with Candida albicans is 0.125 µg/mL (≈ 0.103 µM); in the assay with Nakaseomyces glabratus, 0.25 µg/mL (≈ 0.206 µM); in assay [Candida] auris, 0.25 µg/mL (≈ 0.206 µM).

Turning to `CCCCCCCCCCCCNC(=O)C[C@@H]1NC(=O)CNC(=O)[C@@H](CCN)NC(=O)[C@@H]([C@H](O)c2ccc(O)cc2)NC(=O)[C@H](CO)NC(=O)C[C@@H](C[C@@H](O)[C@@H](O)[C@@H](CCCCCCCCCCC)O[C@H]2OC[C@@H](O)[C@H](O)[C@H]2O)NC(=O)[C@H]([C@H](O)C(N)=O)NC(=O)[C@@H](CO)NC1=O`, the minimal inhibitory concentration (MIC) in the assay on Candida albicans was > 8 µg/mL; in the assay with Nakaseomyces glabratus it was 8 µg/mL (≈ 5.78 µM).

For `CCCCCCCCCCC[C@@H](O[C@H]1OC[C@@H](O)[C@H](O)[C@H]1O)[C@H](O)[C@H](O)C[C@@H]1CC(=O)N[C@@H](CO)C(=O)N[C@H]([C@H](O)c2ccc(O)cc2)C(=O)N[C@H](CCN)C(=O)NCC(=O)N[C@@H](CC(=O)NCC)C(=O)N[C@H](CO)C(=O)N[C@@H]([C@H](O)C(N)=O)C(=O)N1`, the MIC in the assay with Candida albicans was 2 µg/mL (≈ 1.61 µM); with Nakaseomyces glabratus it was 2 µg/mL (≈ 1.61 µM); in assay [Candida] auris it was 1 µg/mL (≈ 0.804 µM).

Consider `CCCCCCCCCCC[C@@H](O[C@H]1OC[C@@H](O)[C@H](O)[C@H]1O)[C@H](O)[C@H](O)C[C@@H]1CC(=O)N[C@@H](CO)C(=O)N[C@H]([C@H](O)c2ccc(O)cc2)C(=O)N[C@H](CCN)C(=O)NCC(=O)N[C@@H](CC(=O)NCC)C(=O)N[C@H](CO)C(=O)N[C@@H](CC(N)=O)C(=O)N1`, for which the values for the MIC (in the assay with Candida albicans; with Nakaseomyces glabratus; in assay [Candida] auris) were 2 µg/mL (≈ 1.63 µM), 2 µg/mL (≈ 1.63 µM) and 1 µg/mL (≈ 0.814 µM), respectively.

These data come from ChEMBL document CHEMBL5357035, “Previously Uncharacterized Variants, OCF-E-OCF-J, of the Antifungal Occidiofungin Produced by Burkholderia contaminans MS14” (2024).
